Laboratory results from US20240368667A1, “RAPID, LABEL-FREE ANTIBIOTIC SUSCEPTIBILITY OF BACTERIA DIRECTLY FROM POSITIVE BLOOD OR BODILY FLUID/CULTURE” (priority 2021, published 2024).
Like-named read-outs stand apart in the source and are kept apart here.

Legend:
[1] = system: E. coli; test: Broth microdilution (BMD) MIC; assay type: cell-based, Escherichia coli; set-up: key to susceptibility classification, BMD: (S) sensitive; (I) intermediate; (R) resistant; conditions: broth microdilution; for MIC: Escherichia coli, read-out: Minimum inhibitory concentration, BMD
Protocol: (§1) Microbroth dilution for minimum inhibitory concentrations (MIC) with and without sucrose recovery. To isolate bacteria without sucrose, culture media from positive BacT/alert FA PLUS aerobic culture bottles (bioMérieux, Durham, NC) was serially diluted and plated onto LB agar (Lennox; Sigma-Aldrich, St. Louis, MO). Bacterial suspensions were prepared by resuspending colonies in CAMHB with incubation on a MaxQ 4000 incubator shaker (Thermo Fisher Scientific, Waltham, MA) at 37° C. and ˜225 rpm for 3 hours. Bacteria recovered via Method 2 were diluted 10-fold in CAMHB. Following incubation or sucrose recovery and dilution, bacterial suspensions were adjusted to ˜0.004 OD600 with CAMHB and a 50-μL aliquot distributed to each well of a 96-well plate containing CAMHB with and without clinically relevant antibiotics (2-fold dilution series). Gram-negative plates included: ceftazidime (3rd generation cephalosporin, RPI corp., Mount Prospect, IL), cefepime (4th generation cephalosporin, Chem-Impex Int'l, Wood Dale, IL), meropenem (carbapenem, Tokyo Chemical Industry, Tokyo, Japan), levofloxacin (quinolone, Alfa Aesar, Haverhill, MA), and tobramycin (aminoglycoside, MP Biomedicals LLC, Santa Ana, CA), while S. aureus plates contained: oxacillin (beta-lactam, Sigma-Aldrich, St. Louis, MO), vancomycin (glycopeptide, Santa Cruz Biotechnology, Dallas, TX), erythromycin (macrolide, Sigma-Aldrich, St. Louis, MO), clindamycin ([…]), and ciprofloxacin (fluoroquinolone, Sigma-Aldrich, St. Louis, MO). Antibiotic plates were incubated at 37° C. for 16-20 hours (gram-negative) or 35° C. for 24 hours (S. aureus), at which time, plates were removed from the incubator and visually inspected for bacterial growth. The MIC was set at the lowest antibiotic concentration at which no growth was detected.

[2] = system: P. aeruginosa; test: Direct flow cytometric AST (high-throughput flow cytometry, HTFC) of sucrose-recovered bacteria; assay type: cell-based, Pseudomonas aeruginosa; set-up: key to susceptibility classification, HTFC: (S) sensitive; (I) intermediate; (R) resistant; conditions: for MIC: Pseudomonas aeruginosa, read-out: Minimum inhibitory concentration, HTFC
Protocol: AST workflow using bacteria recovered directly from positive blood culture. A 1-mL aliquot of bacteria recovered using separation method 2 was diluted 10-fold in CAMHB, the OD600 adjusted to ˜0.01, and a 50 μL aliquot distributed into each well of a 96-well plate containing CAMHB with and without ceftazidime, tobramycin, and either meropenem (E. coli and P. aeruginosa) or oxacillin (S. aureus). Following Clinical and Laboratory Standards Institute (CLSI) guidelines^33, 2% sodium chloride (NaCl) was present in wells containing oxacillin to assist in the detection of methicillin-resistant S. aureus (MRSA). […] To account for observed differences in doubling and lag times, E. coli and P. aeruginosa were incubated for 4 hours at 37° C., while S. aureus was incubated for 9 hours at 35° C. After incubation, antibiotic plates were removed from the incubator and directly stored on ice (i.e. no post-processing) until high-throughput flow cytometry (BD LSRFortessa with HTS-system, BD, Franklin Lakes, NJ). No-antibiotic controls and antibiotic-treated samples were handled identically.
MIC Determination by flow cytometry. Because antibiotic effects are observed in both the position of scatter signatures (morphology changes) and count rates (growth inhibition), a modified count rate, accounting for scatter position, was used to evaluate susceptibility. Briefly, no-antibiotic control populations (triplicate) were pooled, binned, and a convex hull boundary set at 1-standard deviation above the background (not including bins with zero counts) was drawn. […] The overlap ratio, measuring changes in morphology, was then computed by dividing the number of sample events within the no-antibiotic control boundary by the total number of events within the sample. As an increase in count rate attributed to viable bacteria in antibiotic-treated samples is not scientifically meaningful, the fractional overlap was multiplied by the minimum of the control and sample count rates to generate a modified count rate accounting for antibiotic-induced morphological changes. All modified count rates were normalized by the average of the no-antibiotic controls. For automatic MIC determination, normalized count rates corresponding to n (index of predicted MIC), n+1, n+2 were iteratively fit to a linear function with a frameshift of n+1 between iterations (FIGS. 8 and 9). […] A threshold of −0.01 instead of zero was used to mitigate the influence of small fluctuations in normalized count rates on susceptibility determinations.

[3] = system: P. aeruginosa; test: Broth microdilution (BMD) MIC; assay type: cell-based, Pseudomonas aeruginosa; set-up: key to susceptibility classification, BMD: (S) sensitive; (I) intermediate; (R) resistant; conditions: for MIC: Pseudomonas aeruginosa
Protocol: as §1

[4] = system: P. aeruginosa 77; test: Microbroth dilution MIC with and without sucrose recovery; assay type: cell-based, Pseudomonas aeruginosa; conditions: P. aeruginosa 77 recovered by standard plating; MIC given as multiple of S/I/R
Protocol: as §1
Influence of Sucrose on Bacterial MIC. To rule out the potential effect of sucrose exposure in bacterial antibiotic susceptibility, microbroth dilution studies were performed on bacteria recovered using standard practices (i.e. plating following positive blood culture) and through selective lysis coupled with centrifugation through the sucrose cushion (Method 2).

C[C@@H](O)[C@H]1C(=O)N2C(C(=O)O)=C(S[C@@H]3CN[C@H](C(=O)N(C)C)C3)[C@H](C)[C@H]12 [Meropenem, meropenem]
(R): susceptibility classification, HTFC ([2]; P. aeruginosa PA81, antibiotic 4 hours (37° C.)) | susceptibility classification, BMD ([3]; P. aeruginosa Blood Culture B, broth microdilution) | susceptibility classification, BMD ([3]; P. aeruginosa PA81, broth microdilution)
2 µg/mL: MIC ([1]; E. coli EC-bank) | MIC ([2]; 4 h, P. aeruginosa Blood Culture B, antibiotic 4 hours (37° C.)) | MIC ([2]; 4 h, P. aeruginosa PA7, antibiotic 4 hours (37° C.)) | MIC ([2]; PAO1, 4 h, P. aeruginosa PAO1, antibiotic 4 hours (37° C.))
(I): susceptibility classification, BMD ([1]; E. coli EC-bank)
0.25 µg/mL: MIC ([3]; P. aeruginosa Blood Culture C, broth microdilution, read-out: Minimum inhibitory concentration, BMD) | MIC ([3]; P. aeruginosa PA46, broth microdilution, read-out: Minimum inhibitory concentration, BMD)
(S): susceptibility classification, BMD ([1]; E. coli Blood Culture A) | susceptibility classification, BMD ([1]; E. coli Blood Culture B) | susceptibility classification, BMD ([1]; E. coli EC37) | susceptibility classification, BMD ([1]; E. coli Mu76) | susceptibility classification, BMD ([1]; E. coli Mu218) | susceptibility classification, BMD ([1]; E. coli Mu890) | susceptibility classification, HTFC ([2]; P. aeruginosa Blood Culture B, antibiotic 4 hours (37° C.)) | susceptibility classification, HTFC ([2]; P. aeruginosa Blood Culture C, antibiotic 4 hours (37° C.)) | susceptibility classification, HTFC ([2]; P. aeruginosa PA7, antibiotic 4 hours (37° C.)) | susceptibility classification, HTFC ([2]; P. aeruginosa PA46, antibiotic 4 hours (37° C.)) | susceptibility classification, HTFC ([2]; P. aeruginosa PA49, antibiotic 4 hours (37° C.)) | susceptibility classification, HTFC ([2]; P. aeruginosa PAO1, antibiotic 4 hours (37° C.)) | susceptibility classification, BMD ([3]; P. aeruginosa Blood Culture C, broth microdilution) | susceptibility classification, BMD ([3]; P. aeruginosa PA7, broth microdilution) | susceptibility classification, BMD ([3]; P. aeruginosa PA46, broth microdilution) | susceptibility classification, BMD ([3]; P. aeruginosa PA49, broth microdilution) | susceptibility classification, BMD ([3]; P. aeruginosa PAO1, broth microdilution)
⅛S: minimum inhibitory concentration (MIC), Standard [4]
≤ 0.06 µg/mL: MIC ([1]; E. coli Blood Culture A) | MIC ([1]; E. coli Blood Culture B) | MIC ([1]; E. coli EC37) | MIC ([1]; E. coli Mu218) | MIC ([1]; E. coli Mu890)
1 µg/mL: MIC ([2]; 4 h, P. aeruginosa PA46, antibiotic 4 hours (37° C.)) | MIC ([3]; P. aeruginosa PA7, broth microdilution, read-out: Minimum inhibitory concentration, BMD) | MIC ([3]; P. aeruginosa, strain not named (FIG. 13), read-out: MIC as determined by broth microdilution)
0.125 µg/mL: MIC ([2]; 4 h, P. aeruginosa Blood Culture C, antibiotic 4 hours (37° C.))
8 µg/mL: MIC ([2]; 4 h, P. aeruginosa PA81, antibiotic 4 hours (37° C.)) | MIC ([3]; P. aeruginosa Blood Culture B, broth microdilution, read-out: Minimum inhibitory concentration, BMD) | MIC ([3]; P. aeruginosa PA81, broth microdilution, read-out: Minimum inhibitory concentration, BMD)
0.5 µg/mL: MIC ([1]; E. coli Mu76) | MIC ([2]; 4 h, P. aeruginosa PA49, antibiotic 4 hours (37° C.)) | MIC ([3]; P. aeruginosa PA49, broth microdilution, read-out: Minimum inhibitory concentration, BMD) | MIC ([3]; PAO1, P. aeruginosa PAO1, broth microdilution, read-out: Minimum inhibitory concentration, BMD)
